Assay results: patent US10597388B2, “Pyridazinone herbicides” (FMC CORPORATION, priority 2014, dated 2020)

Tests used:
Experiment in all cases: Test C greenhouse herbicide test, pre- and postemergence
Assay type in all cases: in vivo
[1] = test system: barnyardgrass (Echinochloa crus-galli)
Procedure, shortened: (§1)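 Greenhouse pots; pre-em on seeded loam:sand blend, post-em on 2–18 cm plants (1–4 leaf) in sphagnum peat/vermiculite medium. Formulation: non-phytotoxic solvent + surfactant. Read-out: visual % control (0–100) vs controls at 13–15 d.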

[2] = test system: crabgrass, large (large crabgrass, Digitaria sanguinalis)
Procedure, shortened: as §1

[3] = test system: foxtail, giant (giant foxtail, Setaria faberii)
Procedure, shortened: as §1

[4] = test system: galium (catchweed bedstraw, Galium aparine)
Procedure, shortened: as §1

[5] = test system: johnsongrass (Sorghum halepense)
Procedure, shortened: as §1

[6] = test system: lambsquarters (Chenopodium album)
Procedure, shortened: as §1

[7] = test system: nutsedge, yellow (yellow nutsedge, Cyperus esculentus)
Procedure, shortened: as §1

[8] = test system: oilseed rape (Brassica napus)
Procedure, shortened: as §1

[9] = test system: ragweed (common ragweed, Ambrosia elatior)
Procedure, shortened: as §1

soybean (Glycine max) = test system: soybean (Glycine max)
Procedure, shortened: as §1

[10] = test system: waterhemp (common waterhemp, Amaranthus rudis)
Procedure, shortened: as §1

[11] = test system: wheat (winter wheat, Triticum aestivum)
Procedure, shortened: as §1

[12] = Postemergence, 31 g ai/ha, 0 to 100 scale (0 no effect, 100 complete control)
[13] = Postemergence, 125 g ai/ha, scale 0 to 100, 0 is no effect, 100 is complete control
[14] = Postemergence, 250 g ai/ha, scale 0 to 100, 0 no effect, 100 complete control, 13 to 15 d
[15] = Preemergence, 31 g ai/ha, scale 0 to 100, 0 is no effect, 100 is complete control
[16] = Preemergence, 62 g ai/ha, scale 0 to 100, 0 is no effect, 100 is complete control
[17] = Preemergence, 125 g ai/ha, scale 0 to 100, 0 is no effect, 100 is complete control
[18] = Preemergence, 250 g ai/ha, scale 0 to 100, 0 no effect, 100 complete control
[19] = postemergence, 62 g ai/ha, scale 0 to 100, 0 no effect, 100 complete control

## Cc1nn(C)c(=O)c(-c2ccc(F)c3ccccc23)c1O [Compound 41]
[1]; [12]
  Barnyardgrass plant response rating: 25
[1]; [13]
  Plant response rating, Barnyardgrass: 40
[1]; [14]
  Plant response rating, Barnyardgrass: 60
[1]; [15]
  Plant response rating, Barnyardgrass: 10
[1]; [16]
  Plant response rating, Barnyardgrass: 40
[1]; [17]
  Plant response rating, Barnyardgrass: 85
[1]; [18]
  Barnyardgrass plant response rating: 95
[1]; [19]
  Barnyardgrass plant response rating: 35
[2]; [12]
  Crabgrass, Large plant response rating: 5
[2]; [13]
  Plant response rating, Crabgrass, Large: 25
[2]; [14]
  Plant response rating, Crabgrass, Large: 35
[2]; [15]
  Plant response rating, Crabgrass, Large: 30
[2]; [16]
  Plant response rating, Crabgrass, Large: 35
[2]; [17]
  Plant response rating, Crabgrass, Large: 65
[2]; [18]
  Crabgrass, Large plant response rating: 70
[2]; [19]
  Crabgrass, Large plant response rating: 10
[3]; [12]
  Foxtail, Giant plant response rating: 15
[3]; [13]
  Plant response rating, Foxtail, Giant: 30
[3]; [14]
  Plant response rating, Foxtail, Giant: 65
[3]; [15]
  Plant response rating, Foxtail, Giant: 45
[3]; [16]
  Plant response rating, Foxtail, Giant: 80
[3]; [17]
  Plant response rating, Foxtail, Giant: 85
[3]; [18]
  Foxtail, Giant plant response rating: 85
[3]; [19]
  Foxtail, Giant plant response rating: 15
[4]; [12]
  Galium plant response rating: 100
[4]; [13]
  Plant response rating, Galium: 100
[4]; [14]
  Plant response rating, Galium: 100
[4]; [15]
  Plant response rating, Galium: 90
[4]; [16]
  Plant response rating, Galium: 100
[4]; [17]
  Plant response rating, Galium: 98
[4]; [18]
  Galium plant response rating: 98
[4]; [19]
  Galium plant response rating: 100
[5]; [12]
  Johnsongrass plant response rating: 5
[5]; [13]
  Plant response rating, Johnsongrass: 10
[5]; [14]
  Plant response rating, Johnsongrass: 35
[5]; [15]
  Plant response rating, Johnsongrass: 0
[5]; [16]
  Plant response rating, Johnsongrass: 50
[5]; [17]
  Plant response rating, Johnsongrass: 35
[5]; [18]
  Johnsongrass plant response rating: 35
[5]; [19]
  Johnsongrass plant response rating: 10
[6]; [12]
  Lambsquarters plant response rating: 90
[6]; [13]
  Plant response rating, Lambsquarters: 95
[6]; [14]
  Plant response rating, Lambsquarters: 98
[6]; [15]
  Plant response rating, Lambsquarters: 75
[6]; [16]
  Plant response rating, Lambsquarters: 90
[6]; [17]
  Plant response rating, Lambsquarters: 100
[6]; [18]
  Lambsquarters plant response rating: 90
[6]; [19]
  Lambsquarters plant response rating: 95
[7]; [12]
  Nutsedge, Yellow plant response rating: 65
[7]; [13]
  Plant response rating, Nutsedge, Yellow: 65
[7]; [14]
  Plant response rating, Nutsedge, Yellow: 80
[7]; [15]
  Plant response rating, Nutsedge, Yellow: 60
[7]; [16]
  Plant response rating, Nutsedge, Yellow: 75
[7]; [17]
  Plant response rating, Nutsedge, Yellow: 75
[7]; [18]
  Nutsedge, Yellow plant response rating: 80
[7]; [19]
  Nutsedge, Yellow plant response rating: 65
[8]; [12]
  Oilseed Rape plant response rating: 0
[8]; [13]
  Plant response rating, Oilseed Rape: 5
[8]; [14]
  Plant response rating, Oilseed Rape: 0
[8]; [15]
  Plant response rating, Oilseed Rape: 5
[8]; [16]
  Plant response rating, Oilseed Rape: 50
[8]; [17]
  Plant response rating, Oilseed Rape: 40
[8]; [18]
  Oilseed Rape plant response rating: 100
[8]; [19]
  Oilseed Rape plant response rating: 0
[9]; [12]
  Ragweed plant response rating: 70
[9]; [13]
  Plant response rating, Ragweed: 95
[9]; [14]
  Plant response rating, Ragweed: 100
[9]; [15]
  Plant response rating, Ragweed: 85
[9]; [16]
  Plant response rating, Ragweed: 85
[9]; [17]
  Plant response rating, Ragweed: 95
[9]; [18]
  Ragweed plant response rating: 100
[9]; [19]
  Ragweed plant response rating: 85
Soybean (Glycine max); [12]
  Soybean plant response rating: 15
Soybean (Glycine max); [13]
  Plant response rating, Soybean: 20
Soybean (Glycine max); [14]
  Plant response rating, Soybean: 15
Soybean (Glycine max); [15]
  Plant response rating, Soybean: 0
Soybean (Glycine max); [16]
  Plant response rating, Soybean: 20
Soybean (Glycine max); [17]
  Plant response rating, Soybean: 50
Soybean (Glycine max); [18]
  Soybean plant response rating: 55
Soybean (Glycine max); [19]
  Soybean plant response rating: 15
[10]; [12]
  Waterhemp plant response rating: 75
[10]; [13]
  Plant response rating, Waterhemp: 90
[10]; [14]
  Plant response rating, Waterhemp: 85
[10]; [15]
  Plant response rating, Waterhemp: 85
[10]; [16]
  Plant response rating, Waterhemp: 95
[10]; [17]
  Plant response rating, Waterhemp: 100
[10]; [18]
  Waterhemp plant response rating: 100
[10]; [19]
  Waterhemp plant response rating: 75
[11]; [12]
  Wheat plant response rating: 10
[11]; [13]
  Plant response rating, Wheat: 30
[11]; [14]
  Plant response rating, Wheat: 5
[11]; [15]
  Plant response rating, Wheat: 0
[11]; [16]
  Plant response rating, Wheat: 5
[11]; [17]
  Plant response rating, Wheat: 50
[11]; [18]
  Wheat plant response rating: 65
[11]; [19]
  Wheat plant response rating: 0
